59 compounds from publication PMC6687188, “Novel lactate dehydrogenase inhibitors with in vivo efficacy against Cryptosporidium parvum” (PLoS Pathogens, 2019) can be followed below.

For the first test, the target named is recombinant CpLDH protein (Cryptosporidium parvum, UniProt Q9GT92, F198L/K295E/R251K).
Details: not given
In the case of `CC[C@@]1(O)C[C@H](O)c2c(O)c3c(c(O)c2[C@H]1C(=O)OC)C(=O)c1cccc(O)c1C3=O` [NSC196524], the “MEAN CpLDH INHIBITION (%)” value was -30.88%.
On the same count and under the same terms, with `O=C1OC(c2ccco2)=N/C1=C\c1ccc(Cl)c(Cl)c1` [NSC202000] the figure was -23.71%; with `COc1cc2c(c3oc4cccc(O)c4c(=O)c13)[C@@H]1C=CO[C@@H]1O2` [NSC204985], -20.51%; with `CCOC(=O)C(C)NC(=O)N(C)C12CC3CC(CC(C3)C1)C2` (centres unmarked) [NSC208913], -30.10%.
Turning to `CCOC(=O)CNC(=O)NC12CC3CC(CC(C3)C1)C2` [NSC208914], the “MEAN CpLDH INHIBITION (%)” value is reported as -37.53%.
Still for that read-out and setting: with `COc1ccc(C2C=C(c3ccc4c(c3)OCO4)Oc3c2c(=O)oc2ccccc32)cc1OC` (centres unmarked) [NSC211489] the figure was -11.02%; with `CC(C)c1oc(=O)cc2c1[C@@H](O)[C@H]1OC(=O)[C@@]3(C)[C@@H](O)[C@H]4O[C@H]4[C@@]2(C)[C@@H]13` [NSC211500], -13.24%; with `C[n+]1ccc(Nc2ccc(NC(=O)c3ccc(Nc4cc[n+](C)c5ccc([N+](=O)[O-])cc45)cc3[N+](=O)[O-])cc2)cc1.Cl` [NSC218439], -11.45%.
Still for that read-out and setting: with `Cc1[nH]c(=O)[nH]c(=O)c1/C=C/C(=O)NC(CO)CC(C)C` (centres unmarked) [NSC224117] the figure was -0.81%; with `CSCC(CO)NC(=O)/C=C/c1c(C)[nH]c(=O)[nH]c1=O` (centres unmarked) [NSC233872], -35.08%.
With `O=C(O)c1ccc(Nc2c3ccccc3nc3ccccc23)cc1.[Na+]` [NSC235082], the “MEAN CpLDH INHIBITION (%)” value is recorded as -28.09%.
Still for that read-out and setting: with `CO[C@H]1/C=C/O[C@@]2(C)Oc3c(C)c(O)c4c(c3C2=O)C(=O)C=C(NC(=O)/C(C)=C\C=C\[C@H](C)[C@H](OC=O)[C@@H](C)[C@@H](O)[C@@H](C)[C@H](OC(C)=O)[C@@H]1C)C4=O` [NSC239375] the figure was -42.34%; with `Cc1cc(N(CC(C)Br)CC(C)Br)ccc1N=Nc1ccccc1C(=O)O` (centres unmarked) [NSC240419], -69.26%; with `CCCC[S+]([O-])CC(CO)NC(=O)/C=C/c1c(C)[nH]c(=O)[nH]c1=O` (centres unmarked) [NSC241509], -30.83%.
Same read-out and setting: with `COc1cc(O)c(Cc2ccccc2O)c(O)c1C(=O)CCc1ccccc1` [NSC241906] the figure was -0.38%; with `CC[C@@]1(O)C[C@H](O[C@H]2C[C@H](N(C)C)[C@H](O[C@H]3C[C@@H]4O[C@H]5CC(=O)[C@H](C)O[C@H]5O[C@@H]4[C@H](C)O3)[C@H](C)O2)c2c(cc3c(c2O)C(=O)c2c(O)ccc(O)c2C3=O)[C@H]1C(=O)OC` [NSC243023], -140.35%; with `CCS(=O)(=O)Nc1ccc(Nc2c3ccccc3nc3ccccc23)c(OC)c1.CS(=O)(=O)O` [NSC243928], -32.64%.
For `CC(=O)OC[C@H]1O[C@@H](NC(=O)N(CCCl)N=O)[C@H](OC(C)=O)[C@@H](OC(C)=O)[C@@H]1OC(C)=O` [NSC245432], the “MEAN CpLDH INHIBITION (%)” value is -45.30%.
`CO[C@H]1/C=C\C=C(/C)C(=O)NC2=CC(=O)C(N)=C(C[C@@H](C)C[C@H](OC)[C@H](O)[C@@H](C)/C=C(\C)[C@@H]1OC(N)=O)C2=O` [NSC255109]: the “MEAN CpLDH INHIBITION (%)” value was -205.22%.
The same measure, in the same setting: next, `CC(C)N.CC(C)N.[Cl-].[Cl-].[OH-].[OH-].[Pt]` [NSC256927]: -46.96%; `COc1cccc2c1C(=O)c1c(O)c3c(c(O)c1C2=O)C[C@@](O)(C(C)=O)C[C@@H]3O[C@@H]1C[C@@H](N(C)C)[C@@H](O)[C@@H](C)O1` [NSC258812]: -2.78%; `COc1ccc(/C=C2\N=C(c3ccccc3)OC2=O)c(OCc2ccccc2)c1` [NSC262665]: -17.00%.
Still for that read-out and setting: next, `C[n+]1ccc(-c2cc[n+](C)cc2)cc1.[Cl-].[Cl-]` [NSC263500]: -58.44%; `NC1=NCN([C@@H]2O[C@H](CO)[C@@H](O)[C@H]2O)C(=O)N1` [NSC264880]: -2.01%.
Still for that read-out and setting: with `CC[C@@]1(O)C[C@H](O[C@H]2C[C@H](N(C)C)[C@H](O[C@H]3C[C@H](O)[C@H](O[C@H]4C[C@H](O)[C@H](O)[C@H](C)O4)[C@H](C)O3)[C@H](C)O2)c2c(cc3c(c2O)C(=O)c2c(O)ccc(O)c2C3=O)[C@H]1C(=O)OC` [NSC265211] the figure was -47.33%; with `COC1C(C)OC(OC2CC(C)(O)Cc3cc4c(c(O)c32)C(=O)c2c(O)cc3c(c2C4=O)OC2OC3(C)C(O)C(N(C)C)C2O)C(OC)C1(C)OC` (centres unmarked) [NSC265450], -83.48%; with `[Cl][Pt+2][Cl].[NH-]C1CCCCC1[NH-]` (centres unmarked) [NSC265459], -11.78%.
Take `CCCCCCCCCCSCC(CO)NC(=O)/C=C/c1c(C)[nH]c(=O)[nH]c1=O` (centres unmarked) [NSC265473]: the “MEAN CpLDH INHIBITION (%)” value was -39.94%.
In the case of `O=C1N[C@@H]2C(=C[C@H](O)[C@@H](O)[C@H]2O)c2cc3c(c(O)c21)OCO3` [NSC266535], the “MEAN CpLDH INHIBITION (%)” value is reported as -18.25%.
For `CC(=O)O[C@@H]1C[C@H]2O[C@@H]3C=C(C)CC[C@]3(C)[C@]1(C)[C@]21CO1` [NSC267033], the “MEAN CpLDH INHIBITION (%)” value is -8.12%.
With `COc1ccc(S(=O)(=O)N/N=C/C(=O)O)cc1` [NSC267213], the “MEAN CpLDH INHIBITION (%)” value is recorded as -67.55%.
For the compound `CC[C@@]1(O)C[C@H](O[C@H]2C[C@H](N(C)C)[C@H](O)[C@H](C)O2)c2c(cc3c(c2O)C(=O)c2c(O)ccc(O)c2C3=O)[C@H]1C(=O)OC` [NSC267229], the “MEAN CpLDH INHIBITION (%)” value is reported as -179.02%.
On the same count and under the same terms, with `CCNC(=O)OCc1c(COC(=O)NCC)c(-c2ccc(Cl)c(Cl)c2)n2c1CCC2` [NSC267700] the figure was -49.53%; with `C=C(C)C(=O)OC1CCC2(C)C(CCC3C2CCC2(C)C(c4ccc(=O)oc4)CC4OC432)C1` (centres unmarked) [NSC267712], -57.63%; with `COc1cccc2c1C(=O)c1c(O)c3c(c(O)c1C2=O)C[C@@](O)(C(C)=O)C[C@@H]3OC1CC(N(Cc2ccccc2)Cc2ccccc2)C(O)C(C)O1.Cl` (some centres unmarked) [NSC268242], -40.28%.
As to `CC(C)CCCCCCCCCCCCC(=O)NCC(=O)NC1C(C)OC(Nc2ncnc3nc[nH]c23)C(O)C1O` (centres unmarked) [NSC268251], the “MEAN CpLDH INHIBITION (%)” value is -8.04%.
On the same count and under the same terms, next, `CC1=C[C@H]2O[C@@H]3[C@H](O)[C@@H](O)[C@](C)([C@@]2(CO)CC1)[C@]31CO1` [NSC269142]: -41.10%.
On the same count and under the same terms, next, `COC(C(=O)C(O)C(C)O)C1Cc2cc3cc(OC4CC(OC5CC(O)C(O)C(C)O5)C(O)C(C)O4)c(C)c(O)c3c(O)c2C(=O)C1OC1CC(OC2CC(OC3CC(O)C(OC)C(C)O3)C(O)C(C)O2)C(O)C(C)O1` (centres unmarked) [NSC269146]: -38.98%.
On the same count and under the same terms, with `C[C@@H](N)C(=O)NC(CO)C(O)C(N)C=O.Cl` (some centres unmarked) [NSC278619] the figure was -43.32%; with `Cc1cc(N(CCOS(C)(=O)=O)CCOS(C)(=O)=O)ccc1C=Nc1ccc(-c2csc(-c3ccccc3)n2)c(Cl)c1` [NSC281613], -15.80%; with `C=C1C(=O)OC2C1CC1OC2C(C)CCC/C(C)=C\CCC1(C)O` (centres unmarked) [NSC282752], -63.64%.
On to `CCCCCCCCCCCCCCCCCCOP(=O)([O-])OCC[N+](C)(C)C` [NSC282880], for which the “MEAN CpLDH INHIBITION (%)” value is reported as -0.05%.
`CN(CO)c1nc(N(C)CO)nc(N(C)CO)n1` [NSC283162]: the “MEAN CpLDH INHIBITION (%)” value was -65.77%.
Still for that read-out and setting: with `C=C(NC(=O)C(=C)NC(=O)c1csc(C2=N[C@@H]3c4csc(n4)[C@H]4NC(=O)c5csc(n5)[C@H]([C@](C)(O)[C@@H](C)O)NC(=O)[C@H]5CSC(=N5)/C(=C/C)NC(=O)[C@H]([C@@H](C)O)NC(=O)c5csc(n5)[C@]3(CC2)NC(=O)[C@H](C)NC(=O)C(=C)NC(=O)C(=C)NC(=O)[C@H](C(C)C)N[C@@H]2C=Cc3c([C@H](C)O)cc(nc3[C@H]2O)C(=O)O[C@@H]4C)n1)C(N)=O` [NSC285116] the figure was -2.26%.
As to `COc1cc2c(cc1O)N=CC1CCC(O)N1C2=O` (centres unmarked) [NSC285223], the “MEAN CpLDH INHIBITION (%)” value is recorded as -56.39%.
In the case of `CCN(CC)CCNC(=O)c1nn(-c2ccc(Cl)cc2)c2c1CCc1cc(OC)ccc1-2` [NSC288010], the “MEAN CpLDH INHIBITION (%)” value was -45.22%.
Regarding `C[C@]12CC[C@H](OC(=O)Cc3ccc(N(CCCl)CCCl)cc3)C[C@@H]1CC[C@@H]1[C@@H]2CC[C@]2(C)NC(=O)CC[C@@H]12` [NSC290205], the “MEAN CpLDH INHIBITION (%)” value was -205.36%.
For the compound `O=C1C2=Nc3ccccc3C(O)N2c2ccccc21` (centres unmarked) [NSC292147], the “MEAN CpLDH INHIBITION (%)” value was -13.84%.
For the compound `CO[C@@H]1C[C@@H](C[C@H]2CC[C@H](C)[C@H]([C@@H](C)C(=O)[O-])O2)O[C@]2(O[C@](C)([C@H]3CC[C@@](C)([C@@H]4O[C@@H]([C@H]5O[C@@](O)(CO)[C@H](C)C[C@@H]5C)C[C@@H]4C)O3)C[C@H]2C)[C@@H]1C.[Na+]` [NSC292567], the “MEAN CpLDH INHIBITION (%)” value is -134.14%.
Same read-out and setting: with `C=C1C(=O)O[C@H]2/C=C(/CO)[C@H](OC(C)=O)C[C@H](O)/C(C)=C\[C@H](OC(=O)[C@@H](C)CC)[C@H]12` [NSC292663] the figure was -63.04%; with `CCN(CC)CCOC(=O)Cc1cccc2c(=O)cc(-c3ccccc3)oc12` [NSC293015], -3.81%.
On the same count and under the same terms, next, `O=C1Oc2ccccc2C(=O)/C1=C1\C=C(c2ccccc2)SS1` [NSC293927]: -15.46%; `CC(C)C1=C(O)C2=C(C(=O)C1=O)[C@@]1(C)CCCC(C)(C)[C@@H]1C[C@H]2O` [NSC294577]: -16.31%.
The same measure, in the same setting: with `O=C1Nc2ccc(Br)cc2/C1=C/C(=O)c1ccccc1` [NSC294961] the figure was -25.63%; with `CC1(O)C=CC(=O)C=C1` [NSC295156], -1.00%.
For the compound `O=C1c2ccccc2C(=O)c2c(NCCNCCO)ccc(O)c21` [NSC299187], the “MEAN CpLDH INHIBITION (%)” value was -23.00%.
On the same count and under the same terms, with `COc1cc2oc(=O)cc(C)c2cc1[N+](=O)[O-]` [NSC299879] the figure was -32.05%; with `COc1ccc(-c2csc(=[N+]3CCCCC3)s2)cc1` [NSC302358], 0.36%.

Still in this test, the particulars now being: 20 μM compound; 10 mM pyruvate, 1 mM NADH; values below 0 = augmenters.
Regarding `Oc1cccc2cccnc12` [NSC285166], the “MEAN CpLDH INHIBITION (%)” value was -48.97%.
